Laboratory results as given in ChEMBL document CHEMBL4613212, “Insights of synthetic analogues of anti-leprosy agents” (Bioorg Med Chem, 2019).
In brackets after ≈: the same amount, converted by molar mass.

Assays:
Mycobacterium leprae [1] = experiment: Anti-leprotic activity against Mycobacterium leprae infected in BALB/c mouse assessed as time delay in bacterial multiplication in footpad at 0.0045 g/100g of diet administered via feed starting 60 or 75 day post infection up to 90 days by Shepard's kinetic method; format: functional
[2] = Plasma concentration in rifampin-susceptible Mycobacterium leprae infected in BALB/c mouse at 6 mg/kg administered with food daily for 2 weeks by high-pressure liquid chromatography analysis; format: ADME, organism-based; details: po
[3] = Plasma concentration in rifampin-susceptible Mycobacterium leprae infected in BALB/c mouse at 6 mg/kg administered with food daily for 1 week by high-pressure liquid chromatography analysis; format: ADME, organism-based; details: po
[4] = Plasma concentration in rifampin-susceptible Mycobacterium leprae infected in BALB/c mouse at 6 mg/kg administered with food daily for 4 weeks by high-pressure liquid chromatography analysis; format: ADME, organism-based; details: po
Listeria monocytogenes = experiment: Antimicrobial activity against Listeria monocytogenes ATCC 1911 by broth microdilution assay; format: functional
Staphylococcus aureus = experiment: Antimicrobial activity against Staphylococcus aureus ATCC 25923 by broth microdilution assay; format: functional
Pseudomonas aeruginosa = experiment: Antimicrobial activity against Pseudomonas aeruginosa ATCC 27853 by broth microdilution assay; format: functional
Escherichia coli [5] = experiment: Antimicrobial activity against Escherichia coli ATCC 35218 by broth microdilution assay; format: functional
[6] = system: Mycobacterium tuberculosis; experiment: Antitubercular activity against Mycobacterium tuberculosis H37Rv ATCC 27294 incubated for 7 days by microplate alamar blue assay; format: functional; details: H37Rv ATCC 27294, 168 h
Klebsiella pneumoniae = experiment: Antimicrobial activity against Klebsiella pneumoniae 700603 by broth microdilution assay; format: functional
Enterococcus faecalis [7] = experiment: Antimicrobial activity against Enterococcus faecalis ATCC 51922 by broth microdilution assay; format: functional
Escherichia coli [8] = experiment: Antimicrobial activity against Escherichia coli ATCC 25922 by broth microdilution assay; format: functional
Nakaseomyces glabratus = experiment: Antifungal activity against Candida glabrata; format: functional
Enterococcus faecalis [9] = experiment: Antimicrobial activity against Enterococcus faecalis ATCC 29212 by broth microdilution assay; format: functional
[10] = system: Mycobacterium tuberculosis; experiment: Antitubercular activity against Mycobacterium tuberculosis H37Rv ATCC 27294 assessed as growth inhibition at 6.25 ug/ml by microplate alamar blue assay relative to control; format: functional
[11] = system: Mycobacterium tuberculosis; experiment: Antitubercular activity against Mycobacterium tuberculosis H37Rv ATCC 27294 assessed as inhibition of [3H]-thymidine incorporation relative to control; format: functional
[12] = system: Mycobacterium tuberculosis; experiment: Antitubercular activity against Mycobacterium tuberculosis H37Rv ATCC 27294 assessed as inhibition of [3H]-thymidine incorporation; format: functional, organism-based
Mycobacterium leprae [13] = experiment: Anti-leprotic activity against Mycobacterium leprae infected in BALB/c weanling mouse assessed as bacteria killing at 100 mg/kg, ip administrated for 60 days and measured after 1 year by Spearman-Karber technique analysis relative to control; format: functional
Mycobacterium leprae [14] = experiment: Anti-leprotic activity against Mycobacterium leprae infected in BALB/c weanling mouse assessed as bacteria killing at 100 mg/kg, ip administrated for 60 days and measured after 1 year by most probable number technique analysis relative to control; format: functional
[15] = system: Mycobacterium tuberculosis; experiment: Antitubercular activity against Mycobacterium tuberculosis H37Rv ATCC 27294 assessed as inhibition of [3H]-thymidine incorporation at 1 ug/ml relative to control; format: functional

`Nc1ccc([S+]([O-])c2ccc(N)cc2)cc1` showed a Time (Mycobacterium leprae [1]) of 90 days.
`OO` [HYDROGEN PEROXIDE] gave a concentration at 336 h [2] of 50 ng/mL, a concentration at 168 h [3] of 42 ng/mL and a concentration at 672 h [4] of 55 ng/mL.
With `Fc1ccc(/C=N/NC(=S)Nc2ccc(C(F)(F)F)cc2)cc1` the MIC (Listeria monocytogenes) was 1600 µg/mL (≈ 4690 µM), the MIC (Staphylococcus aureus) was 100 µg/mL (≈ 293 µM) and the MIC (Pseudomonas aeruginosa) was 1600 µg/mL (≈ 4690 µM). The MIC (Escherichia coli [5]) was 1600 µg/mL (≈ 4690 µM), the MIC [6] was 400 µg/mL (≈ 1170 µM) and the MIC (Klebsiella pneumoniae) was 800 µg/mL (≈ 2340 µM). For the same compound, the MIC (Enterococcus faecalis [7]) was 1600 µg/mL (≈ 4690 µM), the MIC (Escherichia coli [8]) was 400 µg/mL (≈ 1170 µM) and the MIC (Nakaseomyces glabratus) was 200 µg/mL (≈ 586 µM). For the same compound, the MIC (Enterococcus faecalis [9]) was 200 µg/mL (≈ 586 µM).
For `OC[C@H]1O[C@@H](n2cnc3c(-c4ccccc4)ncnc32)[C@H](O)[C@@H]1O`, the inhibition at 6.25 µg/mL [10] was 14%, the “inhibition (INH)” value [11] was 99% and the IC50 [12] was 0.4 µg/mL (≈ 1.22 µM).
With `NC[C@H]1O[C@H](O[C@H]2[C@H](O)[C@@H](O[C@H]3O[C@H](CO)[C@@H](O)[C@H](N)[C@H]3O)[C@H](N)C[C@@H]2N)[C@H](O)[C@@H](O)[C@@H]1O` [KANAMYCIN] the Activity (Mycobacterium leprae [13]) was 99.7% and the Activity (Mycobacterium leprae [14]) was 99.8%.
Work on `NCC[C@H](O)C(=O)N[C@@H]1C[C@H](N)[C@@H](O[C@H]2O[C@H](CN)[C@@H](O)[C@H](O)[C@H]2O)[C@H](O)[C@H]1O[C@H]1O[C@H](CO)[C@@H](O)[C@H](N)[C@H]1O` [AMIKACIN] yielded an Activity (Mycobacterium leprae [13]) of 96% and an Activity (Mycobacterium leprae [14]) of 97.3%.
In the case of `c1ccc(Cn2cnc3c(-c4ccccc4)ncnc32)cc1`, the inhibition at 1 µg/mL [15] is reported as under 10%.
